For one assay, the target named is T1, human RXFP1 (Homo sapiens, UniProt Q9HBX9).
T1 construct: FLAG (N); expressed in transfected cells
T1 sequence (Q9HBX9 1-757): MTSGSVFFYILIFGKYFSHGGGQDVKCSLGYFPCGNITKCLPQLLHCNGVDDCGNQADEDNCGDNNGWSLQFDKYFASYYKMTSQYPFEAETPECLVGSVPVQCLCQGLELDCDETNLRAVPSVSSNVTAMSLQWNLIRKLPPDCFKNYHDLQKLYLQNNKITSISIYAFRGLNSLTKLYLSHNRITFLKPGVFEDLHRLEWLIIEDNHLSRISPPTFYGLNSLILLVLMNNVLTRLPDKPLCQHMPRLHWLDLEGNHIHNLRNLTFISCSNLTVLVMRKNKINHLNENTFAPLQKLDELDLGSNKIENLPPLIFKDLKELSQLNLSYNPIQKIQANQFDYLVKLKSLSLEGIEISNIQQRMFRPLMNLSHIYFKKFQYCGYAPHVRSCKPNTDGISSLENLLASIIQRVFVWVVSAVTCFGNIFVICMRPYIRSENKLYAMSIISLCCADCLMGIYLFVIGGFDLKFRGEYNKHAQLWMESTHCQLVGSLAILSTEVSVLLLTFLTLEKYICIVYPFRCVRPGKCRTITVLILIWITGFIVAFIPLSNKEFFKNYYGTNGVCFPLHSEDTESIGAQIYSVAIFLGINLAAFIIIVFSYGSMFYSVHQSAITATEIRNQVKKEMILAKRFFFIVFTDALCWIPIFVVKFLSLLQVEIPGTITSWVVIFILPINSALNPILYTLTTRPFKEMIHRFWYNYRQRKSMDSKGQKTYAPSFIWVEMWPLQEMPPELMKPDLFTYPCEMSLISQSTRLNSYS
Briefly: HTRF cAMP counter-screen in HEK293T cells expressing human RXFP1. Type of assay: cell-based. Particulars: for % Eff (cAMP): human RXFP1, experiments (1)-(3). Here is the method:
The HTRF Gs dynamic cAMP assay kit (CisBio, Bedford, MA) was used to measure intracellular cAMP accumulation in HEK293T cells (ATCC, Manassas, VA)[56]. […] The cell stock was verified mycoplasma free and authenticated by ATCC. Transient transfection was accomplished by treating cells in a 6-well plate with a mixture of 2 μg plasmid and 6 μL Lipofectamine 2000 (Invitrogen, Waltham, MA) per manufacturer’s protocol and incubating overnight. For cAMP measurement in 96-well format, HEK293T cells stably transfected with human RXFP2 (HEK-RXFP2), human RXFP1 (HEK-RXFP1), mouse Rxfp1 (HEK-Rxfp1) or transiently transfected with human RXFP1-RXFP2 chimeric receptors were seeded between 7500 and 30,000 cells per well, depending on cell line responsiveness, in serum-free DMEM medium and incubated overnight at 37 °C, 5% CO2. After 18 h, cells were treated with a titration of compound, 2 μM forskolin, or DMSO vehicle. Control wells were also treated with a titration of INSL3 (Phoenix Pharmaceuticals, Burlingame, CA) or human recombinant relaxin 2 (Peprotech, Cranbury, NJ). For the RXFP2 antagonist experiment, cells were co-treated with 0.28 μM compound or 30 nM INSL3 and a titration of the INSL3 B dimer antagonist[38],[39]. For the INSL3 allosteric modulation experiment, cells were co-treated with 0.025, 0.0025, or 0.00025 μM of compound and a titration of INSL3. Cells were incubated for 1 h at 37 °C, 5% CO2, and then kit cAMP-d2 and anti-cAMP antibody were added per manufacturer protocol. Plates were incubated for 1 h at room temperature and the signal was read on a CLARIOstar plate reader (BMG Labtech, Ortenberg, Germany) at 665 and 620 nm emission wavelengths. […]
receptors. HTRF cAMP counter-screen of RXFP2 agonists in HEK293T cells expressing a human RXFP1 and b mouse RXFP1. Relaxin 2 was used as positive control for RXFP1 receptor activation. Results are expressed as mean ± SEM of 3

A further assay addresses T2, human RXFP3 (Homo sapiens, UniProt Q9NSD7).
T2 construct: host or cells: HEK293T (transient)
T2 sequence (Q9NSD7 1-469): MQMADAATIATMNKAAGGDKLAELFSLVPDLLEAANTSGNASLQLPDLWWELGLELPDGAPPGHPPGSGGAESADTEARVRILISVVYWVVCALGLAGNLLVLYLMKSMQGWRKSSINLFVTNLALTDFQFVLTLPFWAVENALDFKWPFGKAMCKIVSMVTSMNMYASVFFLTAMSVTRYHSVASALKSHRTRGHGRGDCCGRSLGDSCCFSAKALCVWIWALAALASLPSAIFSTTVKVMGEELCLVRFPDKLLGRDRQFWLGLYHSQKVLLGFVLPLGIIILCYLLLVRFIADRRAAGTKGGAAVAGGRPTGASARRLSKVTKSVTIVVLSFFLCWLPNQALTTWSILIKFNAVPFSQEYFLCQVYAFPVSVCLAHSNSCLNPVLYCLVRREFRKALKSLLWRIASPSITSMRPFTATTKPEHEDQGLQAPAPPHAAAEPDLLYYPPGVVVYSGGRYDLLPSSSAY
As to the kind of experiment: GloSensor cAMP assay in RXFP3 transiently transfected HEK293T cells. Type of assay: cell-based. The note with it: for RLU (cAMP, raw): RXFP3, 0.1 µM isoproterenol, replicates (1)-(4). (In general: cAMP levels reflect the balance of adenylyl cyclase and phosphodiesterase activity.)

Where “and” joins values, the source holds several entries; their conditions need not be identical. Equal entries are not always repeated.

Consider one molecule from article PMC9636434, “Discovery of small molecule agonists of the Relaxin Family Peptide Receptor 2” (Communications Biology, 2022).

As to `O=C1Nc2ccc(-c3cc(C(F)(F)F)cc(C(F)(F)F)c3)cc2C(=O)N2CCN(C(=O)COc3ccc(OC(F)(F)F)cc3I)C[C@@H]12` [compound 6641], the “activation of human RXFP1 receptor” value on human RXFP1 (HTRF cAMP) was “do not activate”. In addition, the “% Eff (cAMP)” value at human RXFP1 (Log [M] -4.60) was -1.3757% and -1.734% and -1.01%; on human RXFP1 (Log [M] -5.60) it was -1.852% and -1.326% and -2.683%; on human RXFP1 (Log [M] -6.60), -1.88% and -0.1839% and -0.6843%; at human RXFP1 (Log [M] -7.60), -1.108% and 0.09011% and -0.3682%. The “RLU (cAMP, raw)” value on human RXFP3 (Log [M] -4.52) was 1801.05 RLU and 1842.11 RLU and 1885.55 RLU and 1904.59 RLU; on human RXFP3 (Log [M] -5), 1713.57 RLU and 1782 RLU and 1870.67 RLU and 1664.77 RLU; on human RXFP3 (Log [M] -5.52), 1763.55 RLU and 1915.9 RLU and 1776.65 RLU and 1719.52 RLU; at human RXFP3 (Log [M] -6) it was 2045.03 RLU and 1694.52 RLU and 1928.99 RLU and 1704.05 RLU; on human RXFP3 (Log [M] -6.52), 1626.68 RLU and 1976 RLU and 1728.44 RLU and 1743.92 RLU; at human RXFP3 (Log [M] -7), 2133.7 RLU and 1895.07 RLU and 2053.37 RLU and 1981.36 RLU. Also, the “RLU (cAMP, raw)” value at human RXFP3 (Log [M] -7.52) was 1652.87 RLU and 1825.44 RLU and 1426.73 RLU and 1642.75 RLU; on human RXFP3 (Log [M] -8), 1859.96 RLU and 1760.58 RLU and 1940.89 RLU and 1974.81 RLU; at human RXFP3 (Log [M] -8.52), 2192.97 RLU and 1919.63 RLU; on human RXFP3 (Log [M] -9), 1940.02 RLU and 2105.38 RLU and 1999.67 RLU and 2166.54 RLU; on human RXFP3 (Log [M] -9.52), 2103.87 RLU and 2056.3 RLU and 1688.58 RLU; on human RXFP3 (Log [M] -10), 1933.98 RLU and 1927.18 RLU and 2266.97 RLU and 1930.96 RLU. Further, the “RLU (cAMP, raw)” value was 1985.33 RLU and 1919.63 RLU and 2191.46 RLU and 1872.07 RLU at human RXFP3 (Log [M] -10.52); 2121.99 RLU and 2313.03 RLU and 1878.86 RLU and 1896.98 RLU on human RXFP3 (Log [M] -11); 2326.62 RLU and 1848.66 RLU and 1903.78 RLU and 1954.37 RLU at human RXFP3 (Log [M] -11.52); 1756.54 RLU and 2242.81 RLU and 2177.87 RLU and 2001.94 RLU on human RXFP3 (Log [M] -12). Besides, the “activation of RXFP3 (cAMP inhibition)” value on human RXFP3 (cAMP induced by 0.1 µM isoproterenol) is “does not activate”.
